The values that follow come from publication PMC4835877, “HM71224, a novel Bruton’s tyrosine kinase inhibitor, suppresses B cell and monocyte activation and ameliorates arthritis in a mouse model: a potential drug for rheumatoid arthritis” (Arthritis Research & Therapy, 2016).

The test system of experiment [1] is phosphorylation of Btk and PLCγ2 in Ramos cells. The experiment is described as follows: BCR signaling in anti-IgM stimulated Ramos cells (immunoblot). Format: cell-based, human.
Procedure: Ramos cells or human B cells were pretreated with the indicated concentrations of HM71224 and then stimulated with anti-IgM F(ab’)2 (Southern Biotech, Birmingham, AL, USA) for 10 minutes on ice. Cells were then lysed in RIPA buffer (Sigma-Aldrich), and the proteins were separated by SDS-PAGE (Bio-Rad Laboratories, Hercules, CA, USA), transferred onto polyvinylidene fluoride (PVDF) membranes, and immunoblotted with anti-pBtk Y223 (catalog number 5082; Cell Signaling Technology, Danvers, MA, USA), anti-pPLCγ2 Y759 (catalog number 3874; Cell Signaling Technology), anti-pPLCγ2 Y1217 (Cell Signaling Technology), anti-pERK T202/204 (197G2; Cell Signaling Technology), anti-Btk (C82B8; Cell Signal Technology), anti-PLCγ2 (catalog number 3872; Cell Signal Technology), anti-ERK1/2 (3A7; Cell Signaling Technology), and anti-GAPDH (FL-335; Santa Cruz Biotechnology, Santa Cruz, TX, USA) antibodies.
The Ramos B cell lymphoma cell line was chosen to study the inhibitory effects of HM71224 on the BCR signaling cascade as it endogenously expresses Btk [14]. […] Ramos cells were incubated with 100 nM HM71224 for 1 h. After washing, the cells were stimulated with anti-IgM F(ab’)2.
Experiment [2] concerns murine bone marrow-derived macrophages. The experiment is described as follows: Osteoclast formation from murine BMMs (TRAP staining). Format: cell-based, mouse. As to conditions: M-CSF and RANKL, 4 days.
Procedure: To drive osteoclast formation from bone morrow cells, BMMs (4 × 10^4 per well) were stimulated with 30 ng/mL M-CSF and 100 ng/mL RANKL in the presence of increasing concentrations of HM71224 for 4 days. TRAP+ cells with three or more nuclei were counted as osteoclasts.
The subject of experiment [3] is human CD14+ monocytes. The experiment is described as follows: Cytokine production by IC-stimulated human monocytes (ELISA). Format: cell-based. The settings on record: heat-inactivated ICs, increasing concentrations.
Procedure: Human monocytes were stimulated with heat-inactivated ICs at 37 °C for 30 minutes in the presence of increasing concentrations of HM71224. Human PDCs were stimulated with lipopolysaccharide (LPS) or CpG ODN 2006 (ThermoFisher Scientific) for 48 h in the absence or presence of HM71224 (1 μM). The production of tumor necrosis factor (TNF)-α, interleukin (IL)-1β, and IL-6 was then measured using a commercial ELISA (R&D Systems). […] The levels of the indicated cytokines in the culture supernatant were then measured by ELISA at 5 h post stimulation. […] The levels of the indicated cytokines in the culture supernatant were then measured by ELISA at 48 h post stimulation.*P < 0.05, **P < 0.01, and ***P < 0.001 vs. no treatment. LPS lipopolysaccharide
The test system of experiment [4] is CD3+ T cells. The experiment is described as follows: T cell signaling, phospho-flow of CD3/CD28-activated PBMCs. The experiment is classed as cell-based, human. As to conditions: CD3- and CD28-conjugated beads. As for the experimental part: For phospho-flow, B cells were activated by crosslinking their BCRs with anti-human IgM antibodies (10 μg/mL; BD Biosciences) for 10 minutes at 37 °C. Cells were then fixed with 2 % paraformaldehyde at 37 °C for 12 minutes, permeabilized, and stained with anti-CD3-FITC (SK7; BD Biosciences), anti-CD20-PerCP-Cy5.5 (H1; BD Biosciences), anti-pBtk (Y223)-Alexa647 (N35-86; BD Biosciences), anti-pPLCγ2 (Y759)-Alexa647 (K86-689.37; BD Biosciences), anti-pSTAT1 (Y701)-Alexa647 (4a; BD Biosciences), anti-pSTAT3 (Y705)-Alexa647 (4/P-STAT3; BD Biosciences), anti-pSTAT5 (Y694)-Alexa647 (47; BD Biosciences), and anti-pERK1/2 (T202/204)-Alexa647 (20A; BD Biosciences) antibodies. The cells were then washed and analyzed on an LSR II flow cytometer (BD Biosciences). Data were analyzed using FlowJo software, version 8.8 (Treestar, Ashland, OR, USA).
Figure S5. Effect of HM71224 on human T cell signaling. […] The expression level of p-STAT1, p-STAT3, p-STAT5, and p-ERK1/2 by CD3+ T cells was then measured by phospho-flow cytometry.

The target in experiment [5] is BTK (Homo sapiens, UniProt Q06187). The experiment is described as follows: FRET-based Z'-Lyte kinase assay. Also noted: purchased ThermoFisher Scientific (contract research organization). As to conditions: read-out: Biochemical Inhibition, IC50. The source says: (§1) To determine the biochemical selectivity of HM71224, we tested more than 85 kinases using the fluorescence resonance energy transfer (FRET) method.

The target of experiment [6] is EGFR (Homo sapiens, UniProt P00533). The experiment is described as follows: FRET-based Z'-Lyte kinase assay. Also noted: purchased ThermoFisher Scientific (contract research organization). The settings on record: read-out: Biochemical Inhibition, IC50.
Source text: as §1

Chain of EGFR (P00533 25-1210): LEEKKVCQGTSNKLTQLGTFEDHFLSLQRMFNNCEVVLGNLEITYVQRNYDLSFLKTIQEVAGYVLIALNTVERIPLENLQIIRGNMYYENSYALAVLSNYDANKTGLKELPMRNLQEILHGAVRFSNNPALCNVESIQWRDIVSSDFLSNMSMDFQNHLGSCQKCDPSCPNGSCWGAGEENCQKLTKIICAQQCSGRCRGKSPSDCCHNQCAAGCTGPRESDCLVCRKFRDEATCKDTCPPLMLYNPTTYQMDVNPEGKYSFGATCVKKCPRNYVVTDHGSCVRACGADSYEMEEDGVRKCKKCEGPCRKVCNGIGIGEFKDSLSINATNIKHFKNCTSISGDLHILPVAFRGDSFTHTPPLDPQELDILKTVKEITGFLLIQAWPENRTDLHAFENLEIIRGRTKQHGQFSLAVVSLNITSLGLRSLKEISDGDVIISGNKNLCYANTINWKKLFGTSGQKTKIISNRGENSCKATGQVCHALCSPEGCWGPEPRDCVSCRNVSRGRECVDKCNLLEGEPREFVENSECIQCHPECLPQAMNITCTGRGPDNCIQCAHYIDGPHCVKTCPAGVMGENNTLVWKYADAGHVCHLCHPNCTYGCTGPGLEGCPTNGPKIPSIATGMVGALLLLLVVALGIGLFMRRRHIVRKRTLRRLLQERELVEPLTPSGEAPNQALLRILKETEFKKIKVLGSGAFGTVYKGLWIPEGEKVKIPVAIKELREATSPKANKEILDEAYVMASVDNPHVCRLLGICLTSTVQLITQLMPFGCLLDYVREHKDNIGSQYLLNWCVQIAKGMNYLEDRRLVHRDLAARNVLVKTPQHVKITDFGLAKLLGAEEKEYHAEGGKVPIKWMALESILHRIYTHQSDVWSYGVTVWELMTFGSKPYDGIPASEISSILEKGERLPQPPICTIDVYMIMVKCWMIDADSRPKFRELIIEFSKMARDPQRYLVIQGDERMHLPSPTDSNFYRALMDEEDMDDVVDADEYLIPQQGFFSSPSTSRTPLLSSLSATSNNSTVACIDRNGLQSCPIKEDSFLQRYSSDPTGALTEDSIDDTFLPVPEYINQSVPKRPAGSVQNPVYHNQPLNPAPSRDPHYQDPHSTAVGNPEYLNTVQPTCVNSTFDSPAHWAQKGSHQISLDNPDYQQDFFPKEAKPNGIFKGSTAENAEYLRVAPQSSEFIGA
Chain of BTK (Q06187 whole entry): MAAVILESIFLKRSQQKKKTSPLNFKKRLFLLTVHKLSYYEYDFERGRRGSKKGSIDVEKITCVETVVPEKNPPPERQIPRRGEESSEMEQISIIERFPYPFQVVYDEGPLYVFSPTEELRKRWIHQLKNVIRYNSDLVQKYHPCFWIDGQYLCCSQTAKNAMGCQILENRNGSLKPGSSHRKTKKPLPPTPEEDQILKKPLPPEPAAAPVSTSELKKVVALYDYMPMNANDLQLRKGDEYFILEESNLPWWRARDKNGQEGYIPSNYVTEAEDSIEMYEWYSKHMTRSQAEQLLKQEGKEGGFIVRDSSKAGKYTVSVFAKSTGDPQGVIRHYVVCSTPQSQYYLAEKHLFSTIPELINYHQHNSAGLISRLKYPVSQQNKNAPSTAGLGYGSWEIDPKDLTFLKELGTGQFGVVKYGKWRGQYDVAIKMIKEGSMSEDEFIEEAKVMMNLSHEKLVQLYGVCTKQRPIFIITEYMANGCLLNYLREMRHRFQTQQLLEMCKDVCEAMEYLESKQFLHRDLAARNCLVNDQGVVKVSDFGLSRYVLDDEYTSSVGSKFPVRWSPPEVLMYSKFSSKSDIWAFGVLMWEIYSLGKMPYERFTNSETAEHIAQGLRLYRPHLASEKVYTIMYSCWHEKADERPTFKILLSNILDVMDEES

Consider `C=CC(=O)Nc1cccc(Oc2nc(Nc3ccc(N4CCN(C)CC4)cc3)nc3ccoc23)c1` [HM71224], for which, in experiment [1] (100 nM for 1 h, washed, then anti-IgM F(ab')2), the “Duration of inhibition of BTK phosphorylation after washout” value was “at least 24 h”. The “Phosphorylation of Btk and PLCγ2” value in experiment [1] (anti-IgM F(ab')2) is recorded as “decreased markedly”. Moreover, in experiment [2], the “Osteoclast formation from murine BMMs” value is “inhibited osteoclast formation from murine BMMs”. Also, in experiment [3], the “Production of TNF-α, IL-1β, and IL-6” value was “inhibited in a dose-dependent manner”. Besides, in experiment [4], the “T cell receptor signaling (p-STAT1, p-STAT3 and p-STAT5)” value is “not affected”; the “p-ERK1/2 in CD3+ T cells” value is “inhibited”. In addition, the IC50 in experiment [5] is 1.95 nM. In experiment [6], the half-inhibitory concentration (IC50) was found to be 4.96 nM.
